Legend:
human tumor GC3TK = assay: Mouse antitumor: human tumor GC3TK in the subrenal capsule of nude mice, Compound A ip bolus for five days; assay type: in vivo
beagle dogs = assay: Dog toxicity of Compound A given as iv bolus for five consecutive days, with or without oral folic acid or leucovorin; assay type: in vivo

`Cc1nc2ccc3ccc(CNc4ccc5c(c4)CN([C@@H](CCC(=O)O)C(=O)O)C5=O)cc3c2c(=O)[nH]1` [Compound A, (S)-2-(5-(((1,2-Dihydro-3-methyl-1-oxobenzo[f]quinazolin-9-yl)methyl)amino)-1-oxo-2-isoindolinyl)glutaric acid] was tested, and the “Mouse antiumor (% I)” value (human tumor GC3TK; 3.2 mg/kg Compound A, folic acid 0 mg/kg, experiment with 50 mg/kg folic acid) was 100 % I, the “Mouse antitumor (% I)” value (human tumor GC3TK; 3.2 mg/kg Compound A, folic acid 0 mg/kg, experiment with 500 mg/kg folic acid) was 89 % I and the “Mouse antiumor (% I)” value (human tumor GC3TK; 3.2 mg/kg Compound A, folic acid 50 mg/kg) was 100 % I. For the same compound, the “Mouse antitumor (% I)” value (human tumor GC3TK; 3.2 mg/kg Compound A, folic acid 500 mg/kg) was 78 % I, the “Mouse antitumor (% I)” value (human tumor GC3TK; 3.2 mg/kg Compound A, leucovorin 0 mg/kg) was 100 % I and the “Mouse antitumor (% I)” value (human tumor GC3TK; 3.2 mg/kg Compound A, leucovorin 200 mg/kg) was 100 % I. For the same compound, the “inhibition of tumor growth” value (human tumor GC3TK; 3.2 mg/kg ip bolus for five days, no protectant) was “complete inhibition of tumor growth”, the “Mouse antitumor (% I)” value (human tumor GC3TK; 10 mg/kg Compound A, folic acid 0 mg/kg, experiment with 50 mg/kg folic acid) was over 100 % I and the “Mouse antitumor (% I)” value (human tumor GC3TK; 10 mg/kg Compound A, folic acid 0 mg/kg, experiment with 500 mg/kg folic acid) was over 100 % I. For the same compound, the “Mouse antitumor (% I)” value (human tumor GC3TK; 10 mg/kg Compound A, folic acid 50 mg/kg) was over 100 % I, the “Mouse antitumor (% I)” value (human tumor GC3TK; 10 mg/kg Compound A, folic acid 500 mg/kg) was over 100 % I and the “Mouse antitumor (% I)” value (human tumor GC3TK; 10 mg/kg Compound A, leucovorin 0 mg/kg) was over 100 % I. For the same compound, the “Mouse antitumor (% I)” value (human tumor GC3TK; 10 mg/kg Compound A, leucovorin 200 mg/kg) was over 100 % I, the “inhibition of tumor growth” value (human tumor GC3TK; 10 mg/kg ip bolus for five days, no protectant) was “complete inhibition of tumor growth” and the “inhibition of tumor growth” value (human tumor GC3TK; 50 mg/kg folic acid orally 30 minutes prior to the ip bolus dose of Compound A (3.2 or 10 mg/kg)) was “complete inhibition of tumor growth”. For the same compound, the “inhibition of tumor growth” value (human tumor GC3TK; 200 mg/kg leucovorin orally 30 minutes prior to the ip bolus dose of Compound A (3.2 or 10 mg/kg)) was “complete inhibition of tumor growth”, the inhibition (human tumor GC3TK; another experiment, 3.2 mg/kg, absence of protectant) was 89% and the growth inhibition (human tumor GC3TK; another experiment, 10 mg/kg, absence of protectant) was “complete growth inhibition”. For the same compound, the “tumor growth inhibition versus absence of folic acid” value (human tumor GC3TK; another experiment, 500 mg/kg folic acid orally 30 min prior to Compound A) was “not significantly different”, the lethality (beagle dogs; 8 mg/kg iv bolus for five consecutive days, alone) was “lethal” and the deaths (beagle dogs; 10 mg/kg iv 30 minutes after oral leucovorin (Wellcovorin) 10 mg/kg) was “no deaths occurred”. The deaths (beagle dogs; 10 mg/kg iv 30 minutes after oral leucovorin (Wellcovorin) 50 mg/kg) was “no deaths occurred”, the deaths (beagle dogs; 10 mg/kg iv 30 minutes after oral leucovorin (Wellcovorin) 100 mg/kg) was “no deaths occurred” and the deaths (beagle dogs; 10 mg/kg iv 30 minutes after oral leucovorin (Wellcovorin) 200 mg/kg) was “no deaths occurred”. For the same compound, the lethality (beagle dogs; 10 mg/kg iv, five consecutive days, given alone) was “lethal” and the lethality (beagle dogs; 20 mg/kg iv bolus 30 minutes after oral folic acid 50 mg/kg) was “not lethal”.

Reference: patent publication US6855712B2, “Combination of benzoquinazoline antifolates and protecting agents” (SmithKline Beecham Corporation, priority 1992, dated 2005)
